According to article PMC6271698, “Immobilization of Horseradish Peroxidase on NH2-Modified Magnetic Fe3O4/SiO2 Particles and Its Application in Removal of 2,4-Dichlorophenol” (Molecules, 2014):

Test system: T1, Horseradish peroxidase (HRP)
T1 construct: gene PRXC1A; free enzyme
Assay: colorimetric peroxidase assay, Lineweaver-Burk plot
Assay type: biochemical
Conditions: free enzyme, not immobilised; co-substrate H2O2 (concentration not stated); pH and temperature not stated; read-out: Kmapp

**Q.** Which Km does the source give for `CCN(CC)c1ccc(N)cc1` [DPD, N,N-diethyl-p-phenylenediaminesulfate] here?
**A.** Its Km is 500 µM.
